Test results reported in patent US8802597B2, “Herbicidal pyrimidines” (E I du Pont de Nemours and Company, priority 2003, dated 2014).

How the values were obtained:
Assay type in all cases: in vivo
[1] = test system: morningglory (Ipomoea spp.); experiment: Test A pre/postemergence
Summary of the method: (§1)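 Ratings: 0 = no effect, 100 = complete control, assessed visually about ten days post-treatment in a greenhouse. Applications: soil-directed preemergence spray and postemergence spray on 1- to 2-leaf plants, both using a surfactant-containing non-phytotoxic solvent formulation.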

[2] = test system: crabgrass (Digitaria sanguinalis); experiment: Test A pre/postemergence
Summary of the method: as §1

[3] = test system: giant foxtail (Setaria faberi); experiment: Test A pre/postemergence
Summary of the method: as §1

[4] = test system: barnyardgrass (Echinochloa crus-galli); experiment: Test A pre/postemergence
Summary of the method: as §1

[5] = test system: redroot pigweed (Amaranthus retroflexus); experiment: Test A pre/postemergence
Summary of the method: as §1

[6] = test system: velvetleaf (Abutilon theophrasti); experiment: Test A pre/postemergence
Summary of the method: as §1

[7] = test system: transplanted rice seedlings (Oryza sativa cv. ‘Japonica-M202’); experiment: Test E flooded paddy water application; details: Flood, 21 days, scale 0 to 100 (0 no effect, 100 complete control)
Summary of the method: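 Response scored visually on a 0–100 scale (100 = complete control) at 21 days against untreated pots. Treatment was into paddy water 3 cm deep over silt loam, with plants at the 2.0–2.5-leaf stage, grown under 16-h light at 29.5/26.7 °C day/night.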

[8] = test system: late watergrass (Echinochloa oryzicola); experiment: Test E flooded paddy water application; details: Flood, 21 days, scale 0 to 100 (0 no effect, 100 complete control)
Summary of the method: (§2)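 Greenhouse pots of Tama silt loam with weeds and rice at 2.0–2.5-leaf stage, flooded to 3 cm; compounds applied directly into paddy water, depth maintained. Visual rating versus untreated controls after 21 days, 0 (no effect) to 100 (complete control); 29.5/26.7 °C, 16-h photoperiod.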

[9] = test system: early watergrass (Echinochloa oryzoides); experiment: Test E flooded paddy water application; details: Flood, 21 days, scale 0 to 100 (0 no effect, 100 complete control)
Summary of the method: as §2

[10] = test system: smallflower umbrella sedge (Cyperus difformis); experiment: Test E flooded paddy water application; details: Flood, 21 days, scale 0 to 100 (0 no effect, 100 complete control)
Summary of the method: as §2

[11] = test system: water seeded rice seedlings (Oryza sativa cv. ‘Japonica-M202’); experiment: Test E flooded paddy water application; details: Flood, 21 days, scale 0 to 100 (0 no effect, 100 complete control)
Summary of the method: as §2

[12] = test system: rice flatsedge (Cyperus iria); experiment: Test E flooded paddy water application; details: Flood, 21 days, scale 0 to 100 (0 no effect, 100 complete control)
Summary of the method: as §2

[13] = test system: ducksalad (Heteranthera limosa); experiment: Test E flooded paddy water application; details: Flood, 21 days, scale 0 to 100 (0 no effect, 100 complete control)
Summary of the method: as §2

[14] = test system: purple redstem (Ammannia coccinea); experiment: Test E flooded paddy water application; details: Flood, 21 days, scale 0 to 100 (0 no effect, 100 complete control)
Summary of the method: as §2

[15] = test system: barnyardgrass (Echinochloa crus-galli); experiment: Test E flooded paddy water application; details: Flood, 21 days, scale 0 to 100 (0 no effect, 100 complete control)
Summary of the method: as §2

[16] = test system: junglerice (Echinochloa colona); experiment: Test E flooded paddy water application; details: Flood, 21 days, scale 0 to 100 (0 no effect, 100 complete control)
Summary of the method: as §2

[17] = test system: bearded (brdd.) sprangletop (Leptochloa fusca ssp. fascicularis); experiment: Test E flooded paddy water application; details: Flood, 21 days, scale 0 to 100 (0 no effect, 100 complete control)
Summary of the method: as §2

[18] = Postemergence, 125 g ai/ha, 0 to 100 scale (0 no effect, 100 complete control)
[19] = Postemergence, 500 g ai/ha, 0 to 100 scale (0 no effect, 100 complete control)
[20] = Preemergence, 125 g ai/ha, 0 to 100 scale where 0 is no effect and 100 is complete control, approximately ten days
[21] = Preemergence, 500 g ai/ha, 0 to 100 scale where 0 is no effect and 100 is complete control, approximately ten days

Question: `CNc1nc(-c2ccc(Cl)cc2)nc(C(=O)OC)c1Cl` [Compound 111] was tested. Which “Plant response rating, Morningglory” value [1, 18] did it give?
Answer: 20

Question: What about the “Plant response rating, Morningglory” value [1, 19] of the same compound?
Answer: 50

Question: And the “Plant response rating, Morningglory” value [1, 20]?
Answer: 0

Question: What about the “Plant response rating, Morningglory” value [1, 21] of the same compound?
Answer: 0

Question: And the “Plant response rating, Crabgrass” value [2, 18]?
Answer: 5

Question: What about the “Plant response rating, Crabgrass” value [2, 19] of the same compound?
Answer: 30

Question: And the “Plant response rating, Crabgrass” value [2, 20]?
Answer: 0

Question: What about the “Plant response rating, Crabgrass” value [2, 21] of the same compound?
Answer: 0

Question: What about the “Plant response rating, Foxtail, Giant” value [3, 18] of the same compound?
Answer: 0

Question: What about the “Plant response rating, Foxtail, Giant” value [3, 19] of the same compound?
Answer: 0

Question: What about the “Plant response rating, Foxtail, Giant” value [3, 20] of the same compound?
Answer: 0

Question: And the “Plant response rating, Foxtail, Giant” value [3, 21]?
Answer: 0

Question: And the “Plant response rating, Barnyardgrass” value [4, 18]?
Answer: 0

Question: What about the “Plant response rating, Barnyardgrass” value [4, 19] of the same compound?
Answer: 10

Question: What about the “Plant response rating, Barnyardgrass” value [4, 20] of the same compound?
Answer: 0

Question: And the “Plant response rating, Barnyardgrass” value [4, 21]?
Answer: 0

Question: And the “Plant response rating, Pigweed” value [5, 18]?
Answer: 55

Question: What about the “Plant response rating, Pigweed” value [5, 19] of the same compound?
Answer: 85

Question: And the “Plant response rating, Pigweed” value [5, 20]?
Answer: 0

Question: And the “Plant response rating, Pigweed” value [5, 21]?
Answer: 0

Question: What about the “Plant response rating, Velvetleaf” value [6, 18] of the same compound?
Answer: 75

Question: What about the “Plant response rating, Velvetleaf” value [6, 19] of the same compound?
Answer: 85

Question: And the “Plant response rating, Velvetleaf” value [6, 20]?
Answer: 0

Question: And the “Plant response rating, Velvetleaf” value [6, 21]?
Answer: 0

Question: What about the “Rice, Transplanted plant response rating” value ([7]; 32 g ai/ha) of the same compound?
Answer: 0

Question: And the “Rice, Transplanted plant response rating” value ([7]; 64 g ai/ha)?
Answer: 0

Question: What about the “Rice, Transplanted plant response rating” value ([7]; 125 g ai/ha) of the same compound?
Answer: 0

Question: And the “Rice, Transplanted plant response rating” value ([7]; 250 g ai/ha)?
Answer: 0

Question: What about the “Plant response rating, Rice, Transplanted” value ([7]; 16 g ai/ha) of the same compound?
Answer: 0

Question: What about the “Watergrass, Late plant response rating” value ([8]; 32 g ai/ha) of the same compound?
Answer: 0

Question: What about the “Watergrass, Late plant response rating” value ([8]; 64 g ai/ha) of the same compound?
Answer: 0

Question: What about the “Watergrass, Late plant response rating” value ([8]; 125 g ai/ha) of the same compound?
Answer: 0

Question: And the “Watergrass, Late plant response rating” value ([8]; 250 g ai/ha)?
Answer: 0

Question: What about the “Plant response rating, Watergrass, Late” value ([8]; 16 g ai/ha) of the same compound?
Answer: 0

Question: What about the “Watergrass, Early plant response rating” value ([9]; 32 g ai/ha) of the same compound?
Answer: 0

Question: What about the “Watergrass, Early plant response rating” value ([9]; 64 g ai/ha) of the same compound?
Answer: 0

Question: And the “Watergrass, Early plant response rating” value ([9]; 125 g ai/ha)?
Answer: 0

Question: And the “Watergrass, Early plant response rating” value ([9]; 250 g ai/ha)?
Answer: 0

Question: And the “Plant response rating, Watergrass, Early” value ([9]; 16 g ai/ha)?
Answer: 0

Question: And the “Sedge, Umbrella plant response rating” value ([10]; 32 g ai/ha)?
Answer: 0

Question: And the “Sedge, Umbrella plant response rating” value ([10]; 64 g ai/ha)?
Answer: 0

Question: And the “Sedge, Umbrella plant response rating” value ([10]; 125 g ai/ha)?
Answer: 0

Question: What about the “Sedge, Umbrella plant response rating” value ([10]; 250 g ai/ha) of the same compound?
Answer: 75

Question: And the “Plant response rating, Sedge, Umbrella” value ([10]; 16 g ai/ha)?
Answer: 0

Question: And the “Rice, Water Seeded plant response rating” value ([11]; 32 g ai/ha)?
Answer: 0

Question: What about the “Rice, Water Seeded plant response rating” value ([11]; 64 g ai/ha) of the same compound?
Answer: 0

Question: What about the “Rice, Water Seeded plant response rating” value ([11]; 125 g ai/ha) of the same compound?
Answer: 0

Question: And the “Rice, Water Seeded plant response rating” value ([11]; 250 g ai/ha)?
Answer: 0

Question: What about the “Plant response rating, Rice, Water Seeded” value ([11]; 16 g ai/ha) of the same compound?
Answer: 0

Question: What about the “Flatsedge, Rice plant response rating” value ([12]; 32 g ai/ha) of the same compound?
Answer: 0

Question: And the “Flatsedge, Rice plant response rating” value ([12]; 64 g ai/ha)?
Answer: 0

Question: And the “Flatsedge, Rice plant response rating” value ([12]; 125 g ai/ha)?
Answer: 0

Question: And the “Flatsedge, Rice plant response rating” value ([12]; 250 g ai/ha)?
Answer: 0

Question: What about the “Plant response rating, Flatsedge, Rice” value ([12]; 16 g ai/ha) of the same compound?
Answer: 0

Question: What about the “Ducksalad plant response rating” value ([13]; 32 g ai/ha) of the same compound?
Answer: 0

Question: What about the “Ducksalad plant response rating” value ([13]; 64 g ai/ha) of the same compound?
Answer: 85

Question: And the “Ducksalad plant response rating” value ([13]; 125 g ai/ha)?
Answer: 100

Question: What about the “Ducksalad plant response rating” value ([13]; 250 g ai/ha) of the same compound?
Answer: 100

Question: What about the “Plant response rating, Ducksalad” value ([13]; 16 g ai/ha) of the same compound?
Answer: 0

Question: What about the “Redstem plant response rating” value ([14]; 32 g ai/ha) of the same compound?
Answer: 20

Question: What about the “Redstem plant response rating” value ([14]; 64 g ai/ha) of the same compound?
Answer: 30

Question: And the “Redstem plant response rating” value ([14]; 125 g ai/ha)?
Answer: 30

Question: What about the “Redstem plant response rating” value ([14]; 250 g ai/ha) of the same compound?
Answer: 75

Question: What about the “Plant response rating, Redstem” value ([14]; 16 g ai/ha) of the same compound?
Answer: 0

Question: What about the “Barnyardgrass plant response rating” value ([15]; 32 g ai/ha) of the same compound?
Answer: 0

Question: And the “Barnyardgrass plant response rating” value ([15]; 64 g ai/ha)?
Answer: 0

Question: What about the “Barnyardgrass plant response rating” value ([15]; 125 g ai/ha) of the same compound?
Answer: 0

Question: What about the “Barnyardgrass plant response rating” value ([15]; 250 g ai/ha) of the same compound?
Answer: 0

Question: And the “Plant response rating, Barnyardgrass” value ([15]; 16 g ai/ha)?
Answer: 0

Question: And the “Junglerice plant response rating” value ([16]; 32 g ai/ha)?
Answer: 0

Question: And the “Junglerice plant response rating” value ([16]; 64 g ai/ha)?
Answer: 0

Question: And the “Junglerice plant response rating” value ([16]; 125 g ai/ha)?
Answer: 0

Question: What about the “Junglerice plant response rating” value ([16]; 250 g ai/ha) of the same compound?
Answer: 0

Question: What about the “Plant response rating, Junglerice” value ([16]; 16 g ai/ha) of the same compound?
Answer: 0

Question: And the “Sprangletop, Brdd. plant response rating” value ([17]; 32 g ai/ha)?
Answer: 0

Question: What about the “Sprangletop, Brdd. plant response rating” value ([17]; 64 g ai/ha) of the same compound?
Answer: 0

Question: And the “Sprangletop, Brdd. plant response rating” value ([17]; 125 g ai/ha)?
Answer: 0

Question: What about the “Sprangletop, Brdd. plant response rating” value ([17]; 250 g ai/ha) of the same compound?
Answer: 0

Question: And the “Plant response rating, Sprangletop, Brdd.” value ([17]; 16 g ai/ha)?
Answer: 0
